The text below walks through data of ChEMBL document CHEMBL1201862, “PubChem BioAssay data set” (2004).

Test [1] has as its target T1, Replicative DNA helicase DnaB (Mycobacterium tuberculosis, UniProt P9WMR3).
T1 sequence (P9WMR3 whole entry): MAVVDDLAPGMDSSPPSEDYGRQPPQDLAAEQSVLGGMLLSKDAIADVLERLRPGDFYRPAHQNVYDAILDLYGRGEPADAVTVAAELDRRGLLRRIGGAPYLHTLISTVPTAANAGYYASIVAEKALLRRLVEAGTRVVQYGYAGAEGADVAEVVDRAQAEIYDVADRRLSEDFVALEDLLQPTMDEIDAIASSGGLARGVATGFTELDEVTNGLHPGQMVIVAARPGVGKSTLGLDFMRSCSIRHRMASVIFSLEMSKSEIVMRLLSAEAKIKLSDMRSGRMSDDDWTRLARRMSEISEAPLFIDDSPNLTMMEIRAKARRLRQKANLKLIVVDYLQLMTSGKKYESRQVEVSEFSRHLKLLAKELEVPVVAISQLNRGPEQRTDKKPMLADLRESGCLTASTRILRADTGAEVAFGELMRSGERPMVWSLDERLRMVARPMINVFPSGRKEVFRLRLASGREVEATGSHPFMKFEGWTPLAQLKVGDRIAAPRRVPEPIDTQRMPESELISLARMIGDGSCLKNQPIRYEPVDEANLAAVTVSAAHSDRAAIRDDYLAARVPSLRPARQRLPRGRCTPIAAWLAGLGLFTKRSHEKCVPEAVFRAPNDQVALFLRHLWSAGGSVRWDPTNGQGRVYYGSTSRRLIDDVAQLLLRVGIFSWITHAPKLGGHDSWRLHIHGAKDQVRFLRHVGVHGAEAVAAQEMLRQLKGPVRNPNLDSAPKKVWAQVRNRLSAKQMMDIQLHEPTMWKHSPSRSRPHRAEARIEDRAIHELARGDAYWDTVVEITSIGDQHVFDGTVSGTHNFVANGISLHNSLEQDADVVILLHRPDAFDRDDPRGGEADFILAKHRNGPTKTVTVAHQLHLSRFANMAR
The test is described as follows: DnaB intein splicing inhibitors, dose response, biochemical, cell-free fluorescence (AID 449749). It is filed as functional.

The target of the next test is T2, Protein RecA (Mycobacterium tuberculosis, UniProt P9WHJ3).
T2 sequence (P9WHJ3 whole entry): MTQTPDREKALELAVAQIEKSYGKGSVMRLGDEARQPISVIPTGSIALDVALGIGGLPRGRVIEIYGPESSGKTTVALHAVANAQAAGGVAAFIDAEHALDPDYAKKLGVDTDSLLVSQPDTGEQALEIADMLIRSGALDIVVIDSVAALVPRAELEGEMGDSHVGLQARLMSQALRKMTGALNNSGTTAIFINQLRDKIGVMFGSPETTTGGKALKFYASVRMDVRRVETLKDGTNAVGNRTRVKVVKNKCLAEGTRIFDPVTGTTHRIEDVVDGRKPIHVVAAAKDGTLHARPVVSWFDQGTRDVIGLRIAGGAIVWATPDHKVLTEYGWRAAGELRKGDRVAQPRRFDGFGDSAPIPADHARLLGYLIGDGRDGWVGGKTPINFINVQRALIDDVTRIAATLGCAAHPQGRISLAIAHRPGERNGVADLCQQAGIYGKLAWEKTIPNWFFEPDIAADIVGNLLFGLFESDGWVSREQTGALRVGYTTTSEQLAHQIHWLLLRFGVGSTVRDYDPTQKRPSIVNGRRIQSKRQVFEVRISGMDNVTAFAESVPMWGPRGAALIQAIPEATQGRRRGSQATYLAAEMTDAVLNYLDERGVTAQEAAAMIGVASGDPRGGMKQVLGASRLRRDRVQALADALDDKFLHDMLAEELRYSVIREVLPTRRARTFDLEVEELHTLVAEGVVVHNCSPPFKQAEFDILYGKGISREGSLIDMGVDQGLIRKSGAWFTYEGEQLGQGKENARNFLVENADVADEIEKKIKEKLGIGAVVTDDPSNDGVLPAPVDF
Put plainly: Fluorescence Cell-Free Homogeneous Dose Retest to Identify Inhibitors of RecA-Intein Splicing Activity. [Related pubchem assays (depositor defined):AID2097, AID2223, AID489010, AID492950]. It is filed as functional.

A short description of test [2]: HEp-2 cell cytotoxicity, dose response, cytotoxicity control for RSV inhibitor project, HTS (AID 2410). It is filed as functional. The note with it: human respiratory syncytial virus.
The nature of test [3]: NIH-3T3 fibroblast cytotoxicity, dose response, cytotoxicity control, cell-based, fluorescence, Alamar Blue, secondary assay (AID 2327).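 Further: NIH-3T3 mouse fibroblasts cultured with fluconazole at 8 µg/mL.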 It is filed as functional. For orientation: Alamar Blue is a resazurin reagent that responds to reducing activity.
The nature of test [4]: C. albicans growth with fluconazole, confirmation, fluorescence, retest (AID 2467). It is filed as functional, cell-based.
Test [5] concerns the target T3, Rac GTPase-activating protein 1 (Homo sapiens, UniProt Q9H0H5).
T3 sequence (Q9H0H5 whole entry): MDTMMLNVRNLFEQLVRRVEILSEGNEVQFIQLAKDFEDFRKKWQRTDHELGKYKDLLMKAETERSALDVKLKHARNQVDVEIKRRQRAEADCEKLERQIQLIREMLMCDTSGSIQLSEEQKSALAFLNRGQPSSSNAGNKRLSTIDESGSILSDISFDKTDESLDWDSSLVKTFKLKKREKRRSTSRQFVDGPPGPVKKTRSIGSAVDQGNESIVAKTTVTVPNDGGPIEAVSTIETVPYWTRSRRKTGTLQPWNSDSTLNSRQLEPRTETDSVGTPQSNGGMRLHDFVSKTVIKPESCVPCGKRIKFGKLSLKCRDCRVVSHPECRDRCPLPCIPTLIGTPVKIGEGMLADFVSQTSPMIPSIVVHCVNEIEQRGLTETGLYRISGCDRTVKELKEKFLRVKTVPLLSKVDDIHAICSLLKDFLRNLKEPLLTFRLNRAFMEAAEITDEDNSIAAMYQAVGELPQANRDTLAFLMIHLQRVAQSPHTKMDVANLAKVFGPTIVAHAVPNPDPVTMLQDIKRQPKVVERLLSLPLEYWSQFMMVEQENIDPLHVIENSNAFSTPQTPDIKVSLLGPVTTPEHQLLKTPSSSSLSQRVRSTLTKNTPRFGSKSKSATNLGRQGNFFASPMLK
Put plainly: MgcRacGAP GTPase-activating activity inhibitors, confirmation, biochemical, ADP Hunter fluorescence, primary and confirmatory (AID 624330). It is filed as functional.

Test [6] has as its target T4, Calpain-2 catalytic subunit (Sus scrofa, UniProt P43367).
T4 sequence (P43367 whole entry): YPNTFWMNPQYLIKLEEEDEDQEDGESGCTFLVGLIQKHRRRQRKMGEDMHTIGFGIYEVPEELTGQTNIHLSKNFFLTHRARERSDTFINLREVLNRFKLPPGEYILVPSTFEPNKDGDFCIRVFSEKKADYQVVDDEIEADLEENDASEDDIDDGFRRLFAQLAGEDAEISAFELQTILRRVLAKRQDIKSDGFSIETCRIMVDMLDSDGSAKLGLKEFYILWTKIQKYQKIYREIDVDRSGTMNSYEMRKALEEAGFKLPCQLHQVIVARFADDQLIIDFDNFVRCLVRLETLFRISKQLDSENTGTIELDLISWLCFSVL
Put plainly: pig calpain II inhibitor potency, dose response, biochemical, fluorogenic peptide substrate (AID 1420). It counts as functional.

The nature of test [7]: Luminescence Cell-Based Dose Confirmation HTS to Identify Activators of 5'UTR Stem-Loop Driven Alpha-Synuclein mRNA Translation in H4 Neuroglioblastoma Cells. [Related pubchem assays: 1829 (Project Summary), 1814 (Primary HTS)]. It counts as functional.
A short description of test [8]: Luminescence Cell-Based Dose Response HTS to Identify Activators of Luciferase Translation or Activity in H4 […] Cells. [Related pubchem assays: 1829 (Project Summary), 1814 (Primary HTS)]. It is filed as functional.
The next test has as its system H4. Put plainly: Luminescence Cell-Based Dose Response HTS to Identify Activators of 5'UTR Stem-Loop Driven Prion Protein mRNA Translation in H4 Neuroglioblastoma Cells. [Related pubchem assays: 1829 (Project Summary), 1814 (Primary HTS)]. It counts as functional. The following applies: Homo sapiens.

Active and inactive are the calls of the source. For most assays here, no stated cut-off is given here; in the data, actives have a measured EC50 and inactives only a lower limit.

For the compound `CC(C)c1n[nH]c2c1C1(CCN(Cc3ccccc3)CC1)C(C#N)=C(N)O2`, the AC50 (commonly the midpoint of the concentration-response curve, whichever way the signal moves) in test [1] is 53.5 µM (active). Besides, the EC50 (in general, the concentration at which the effect is half-maximal) at Protein RecA is 1.16 µM (active).

On to `Cc1ccc(N(CCCCN2C(=O)c3ccccc3C2=O)C(=O)c2cccs2)cc1`, for which, in [2], the CC50 (commonly the concentration that lowers cell viability or growth by half) is 38.9 µM (active).

With `COc1ccccc1NC(=O)Cn1cnc2c(cnn2-c2ccccc2)c1=O`, the EC50 is > 150 µM (inactive) in [3] and > 38 µM (not active) in [4].

In the case of `COc1ccc(CN2C(=O)/C(=C\NNC(=O)c3cccnc3)c3ccccc3C2=O)cc1`, the EC50 is 27.4 µM (active) in test [3] and 1.32 µM (active) in [4]. Also, the IC50 (in general, the concentration that inhibits the measured activity by half) in test [5] is 137 µM (active).

Take `CC(=O)c1cccc(NC(=S)NC(=O)c2ccc(C)cc2)c1`: the EC50 in [3] is > 160 µM (inactive); in [4], > 38 µM (not active).

For `CC1=C(C(=O)OCc2ccccc2)C(c2cccs2)N2C(=O)CCSC2=N1` (centres undefined), the IC50 in test [6] is given as 8.99 µM (not active).

As for `CC(NC(=O)c1ccccc1)c1ccc(F)cc1` (centres undefined), in test [6], the IC50 is > 50 µM (not active).

As to `N#Cc1cc2c(nc1SCc1nc3ccccc3[nH]1)CCC2`, the CC50 in [2] is 38 µM (active).

With `COc1ccc(/C(=C/Nc2cccc(Br)c2)C(C)=O)cc1OC`, the IC50 in test [6] is reported as 9 µM (not active).

As for `N#C/C(=C(/O)CN1C(=O)c2ccccc2C1=O)c1nc2ccccc2[nH]1`, in [6], the IC50 is 2.28 µM (not active).

As for `N#Cc1c(-c2ccc(Cl)cc2)cc(-c2ccccc2)nc1SCC(=O)O`, the EC50 in test [3] was 134 µM (active); in [4] it was 1.57 µM (active).

`Cc1cccc(C(=O)c2cnc3ccccc3c2-c2ccccc2)c1`: in [1], the AC50 is 4.79 µM (active). Also, the EC50 on Protein RecA is 22.8 µM (active).

As to `CCCCC(=O)Nc1ccc(C(=O)c2ccccc2)cc1`, in test [6], the IC50 was > 50 µM (not active).

In the case of `CCOc1ccc2nc(SCC(=O)N3CCN(C(=O)c4ccco4)CC3)sc2c1`, the CC50 in test [2] is 22.8 µM (active).

Consider `O=C(Nc1ccc(F)c(Cl)c1)NC1CC1`, for which the results for the EC50 in test [3] and in [4] were > 150 µM (inactive) and 2.1 µM (active), respectively.

Turning to `CCN(c1ccc(OCC(=O)OCC(=O)Nc2ccc(F)c(F)c2F)cc1)S(=O)(=O)c1ccccc1`, in test [6], the IC50 is listed as 3.96 µM (not active).

Turning to `O=C(Nc1ccccc1)C1=C[C@@H](c2ccccc2)C[C@@H](OCc2ccc(CO)cc2)O1`, the EC50 is 7.69 µM (active) in test [7], > 120 µM (not active) in test [8] and 14.2 µM (active) in the test with H4.

On to `O=C(Nc1cccnc1)C1CCN(S(=O)(=O)c2cccs2)CC1`, for which the EC50 (in test [7]; in test [8]; in the test with H4) was > 120 µM (not active) each time.

As to `Cc1ccc(/C=C/C(=O)c2c(C)cc(C)nc2O)cc1`, in test [2], the half-maximal cytotoxic concentration (CC50) is 17.7 µM (active).

As to `O=C(c1cc2ccccc2oc1=O)N(c1ccc(Cl)cc1)C1C=CS(=O)(=O)C1` (centres undefined), the EC50 in test [7] was 13.6 µM (active); in [8], 36.3 µM (active); in the test on H4 it was > 120 µM (not active).

As for `CCOC(=O)N1CCN(CC(=O)Nc2sccc2C#N)CC1`, in test [6], the IC50 is given as 33.6 µM (not active).

As to `CCOC(=O)CN(C(=O)CSc1n[nH]c2c3cc(F)ccc3nc-2n1)c1ccccc1`, the IC50 in [6] is on record as 5.94 µM (not active).

In the case of `Cc1nc2ccccc2c2c1C(=O)N(c1cccc(C(=O)O)c1)C2=O`, the AC50 in test [1] is 37 µM (active). Also, the EC50 on Protein RecA is 17 µM (active).

`CCOC(=O)C1CCN(Cc2cc(C(C)C)c(O)c(C(C)C)c2)CC1`: the EC50 at Protein RecA was > 380 µM (inactive).

Take `Cc1cccc(N2CCN(C(=O)c3ccc4c(c3)CCN4S(C)(=O)=O)CC2)c1C`: the CC50 in test [2] was 38.3 µM (active).

`O=C1CC2C(=O)NCCN2C(NC(=O)c2ccc(Cl)cc2)=N1` (centres undefined): the IC50 in [6] is 0.931 µM (not active).

For `Cc1ccc(C2CC(C(F)F)n3ncc(C(=O)Nc4cnn(Cc5ccccc5C)c4)c3N2)cc1` (centres undefined), in [2], the CC50 was 19.4 µM (active).

In the case of `CCCCNc1nnc(SCC(=O)N2CCN(S(=O)(=O)c3ccc4ccccc4c3)CC2)s1`, in [2], the CC50 was > 50 µM (active).

Turning to `COc1ccccc1C1CC(c2ccco2)=NN1S(C)(=O)=O` (centres undefined), the EC50 in [3] is > 160 µM (inconclusive); in test [4], > 38 µM (not active).

As to `CCCCCOc1ccc(CSc2n[nH]c(C)n2)cc1`, the EC50 is 63 µM (active) in test [7], 14.5 µM (active) in test [8] and 20.8 µM (active) in the test with H4.

For `Cc1ccc(Cl)cc1N1CCN(C(=O)CCCn2c(=O)c3cccn3c3cccnc32)CC1`, in test [2], the CC50 was 12.1 µM (active).

Take `C=CCn1c(CCCNC(=O)c2ccccc2OC)nc2ccccc21`: the IC50 in test [6] is recorded as 13.2 µM (not active).

Take `COc1ccccc1N1CCN(/N=C/c2cc([N+](=O)[O-])ccc2Cl)CC1`: the CC50 in test [2] was 29 µM (active).

Take `O=C(NCc1ccccn1)C(=O)Nc1ccccc1`: the EC50 in test [7] is 46.3 µM (active); in [8] it was 27.2 µM (active); with H4, 13 µM (active).
